Here are results for five compounds from publication PMC6021035, “Insights into biological activity of ureidoamides with primaquine and amino acid moieties” (Journal of Enzyme Inhibition and Medicinal Chemistry, 2018).

Data set [1] has as its system Candida albicans ATCC 10231. As to the kind of experiment: Minimum biofilm eradication assay. In kind it is cell-based. As to conditions: ATCC10231, 48 h, read-out: MBEC. The method, then: (§1) We tested the susceptibility of different bacterial and yeast strains to compounds 5a–f by determining the minimum biofilm eradication concentration (MBEC). The test was performed in a sterile 96-well flat-bottom plastic tissue culture plate (TPP, Switzerland). Each well was filled with 100 µl of bacterial (10^7 CFUs/ml) or yeast (5 × 10^6 CFUs/ml) suspension. When the possibility of inhibition of yeast biofilm formation was tested, the wells were pre-treated with FBS (250 µl per well). Negative controls contained broth only. Positive controls were performed using standard antibacterial and antifungal drugs gentamycin and amphotericin B, respectively. The plates were covered and incubated aerobically for 24 h (bacteria) or 48 h (yeast) at 37 °C. Following the incubation period, each well was aspirated and washed three times with 250 µl of PBS and vigorously shaken in order to remove all non-adherent bacteria/yeast. The remaining attached cells were fixed with methanol (15 min) and the plates were left to dry overnight. The formed biofilm was stained with crystal violet (1%, 5 min). Excess stain was rinsed by placing the plate under running tap water and the plates were left to dry for 24 h. Adherent cells were resolubilized with acetic acid (33%, v/v). The optical density of each well was measured at 570 nm using a Multiscan plate reader. The MBEC value represents the lowest compound dilution at which microorganisms fail to grow.

For data set [2], the system named is Candida albicans ATCC 90028. In words: Minimum biofilm eradication assay. It is filed as cell-based. The note with it: ATCC90028, 48 h, read-out: MBEC. The method, then:
as §1

For the next data set, the system named is Candida kefyr ATCC 2512. In words: Minimum biofilm eradication assay. The note with it: Kluyveromyces marxianus, ATCC2512, 48 h, read-out: MBEC. In kind it is cell-based. As for the experimental part: as §1
Data set [3] deals with Candida krusei ATCC 14243. In words: Minimum biofilm eradication assay. In kind it is cell-based. As to conditions: Pichia kudriavzevii, ATCC14243, 48 h, read-out: MBEC. The method, then:
as §1

Data set [4] has as its system Candida parapsylosis ATCC 22019. In words: Minimum biofilm eradication assay. It is filed as cell-based. As for the experimental part: as §1
For data set [5], the system named is Candida tropicalis ATCC 750. As to the kind of experiment: Minimum biofilm eradication assay. It is filed as cell-based. As to conditions: ATCC750, 48 h, read-out: MBEC. As for the experimental part:
as §1

The subject of data set [6] is Enterococcus faecalis ATCC 29212. In words: Minimum biofilm eradication assay. It is filed as cell-based. The method, then: as §1
Data set [7] deals with Escherichia coli ATCC 10536. As to the kind of experiment: Minimum biofilm eradication assay. It is filed as cell-based. As for the experimental part:
as §1

Data set [8] relates to Escherichia coli ATCC 8739. In words: Minimum biofilm eradication assay. It is filed as cell-based. The method, then:
as §1

The test system of data set [9] is Pseudomonas aeruginosa ATCC 27853. As to the kind of experiment: Minimum biofilm eradication assay. It is filed as cell-based. As for the experimental part: as §1
Data set [10] concerns Pseudomonas aeruginosa ATCC 9027. As to the kind of experiment: Minimum biofilm eradication assay. It is filed as cell-based. The method, then:
as §1

For data set [11], the system named is Staphylococcus aureus ATCC 25213. As to the kind of experiment: Minimum biofilm eradication assay. In kind it is cell-based. The method, then:
as §1

Data set [12] concerns Staphylococcus aureus ATCC 6538. As to the kind of experiment: Minimum biofilm eradication assay. In kind it is cell-based. The method, then:
as §1

The nature of data set [13]: Interaction with 1,1-diphenyl-2-picrylhydrazyl (DPPH). The note with it: 100 μΜ. As for the experimental part: To a solution of DPPH in absolute ethanol, an appropriate volume of the tested compound solution (0.1 mM final concentration) dissolved in DMSO was added. Absorbance was recorded at 517 nm after 20 and 60 min at room temperature (Lambda 20 double beam spectrophotometer, Perkin-Elmer, UK). Experiments were repeated at least in triplicate and the standard deviation of absorbance was less than 10% of the mean[10]. NDGA was used under the same experimental conditions as a reference compound.

Data set [14] in a line: Inhibition of linoleic acid peroxidation (LP), AAPH-initiated. As to conditions: 100 μΜ, 37 °C. On the set-up: tested at 100 µM. The method, then: To initiate lipid peroxidation, the free radical AAPH was used[10]. The final solution in the UV cuvette consisted of 10 µl sodium linoleate solution (c = 16 mM) and 0.93 ml phosphate buffer pH 7.4 (c = 50 mM). Afterwards, 10 µl of the tested compound solution in DMSO (final concentration 0.1 mM) and 50 µl of AAPH solution (c = 40 mM) were added. The experiment was performed at 37 °C under air. Oxidation of linoleic acid sodium salt was monitored at 234 nm. The assay was repeated at least in triplicate and the standard deviation of absorbance was less than 10% of the mean. Trolox was used under the same experimental conditions as a reference compound.

Data set [15] is described as follows: In vitro haemolytic activity. It is filed as cell-based. As to conditions: male, 4% human erythrocytes, read-out: Haemolysis (%); for hemolysis at 1 h, 50 µg/ml: pH 7, 50 μg/ml; for hemolysis at 1 h, 100 µg/ml: pH 7, 100 μg/ml; for hemolysis at 1 h, 200 µg/ml: pH 7, 200 μg/ml. The method, then:
Then, 4% (v/v) of fresh human erythrocyte solution (hErc) was prepared using a PBS pH 7.0 solution. A series of diluted compounds from 200 to 50 µg/ml were prepared in a total volume of 1 ml with hErc solution. […] Absorbance of the supernatant (200 µl) was recorded at 540 nm using an iEMS microplate reader. The 0.1% (v/v) solution of Triton X100 served as a positive control (as total lysis of hErc), and intact hErc served as a negative control. […] All tests were performed in triplicate and the results were expressed as haemolysis percentage (mean ± SD). Percentage of haemolysis was calculated using the following equation: haemolysis %=Asample-Anc/Apc-Anc×100 where Asample was absorbance of the tested compound, Anc was absorbance of the negative control (intact hErc) and Apc was absorbance of the positive control treated with 0.1% TritonX100. In statistical calculations, p values below 0.05 were considered significant throughout the test. For comparison of mean values, one-way ANOVA with Dunnet’s post-test was used.

[16] abbreviates: 4% (v/v) fresh human erythrocyte suspension.

Like-named read-outs stand apart in the source and are kept apart here. Marks after values point to notes of the source that are not given here.

Regarding `COc1cc(NC(C)CCCNC(=O)NC(C(=O)NC(c2ccccc2)c2ccccc2)c2ccc(Cl)cc2)c2ncccc2c1` (centres unmarked) [Compound 5d, 2–(4-chlorophenyl)-N-(diphenylmethyl)-2-[({4-[(6-methoxyquinolin-8-yl)amino]pentyl}carbamoyl)amino]acetamide], the minimal effective concentration is 50 µg/mL in data set [1]; 25 µg/mL in data set [2]; 25 µg/mL in the data set on Candida kefyr ATCC 2512; > 100 µg/mL in [3]; > 100 µg/mL in data set [5]. The MBEC is >100 µg/mL in data set [4]; >100 µg/mL in [6]; 25 µg/mL in data set [7]; 25 µg/mL in data set [8]; 50 µg/mL in [9]; 50 µg/mL in [10]. In addition, the MBEC in data set [11] and in data set [12] was 25 µg/mL throughout. The “DPPH-reducing ability 20 min” value in data set [13] was 1^b %. For the same compound, in [13], the “DPPH-reducing ability 60 min” value is given as 2^b %. The “LP inhibition (%) ± SD” value in [14] was 90 ± 4.5%. Besides, the hemolysis at 1 h, 50 µg/ml in data set [15] (setting [16]) was determined as 2.56 ± 0.05%. Besides, the hemolysis at 1 h, 100 µg/ml in data set [15] (setting [16]) turned out to be 2.94 ± 0.04%. Besides, the hemolysis at 1 h, 200 µg/ml in [15] (setting [16]) is 3.07 ± 0.05%.

Turning to `COc1cc(NC(C)CCCNC(=O)NC(CC(C)C)C(=O)NC(c2ccccc2)c2ccccc2)c2ncccc2c1` (centres unmarked) [Compound 5a, N-(diphenylmethyl)-2-[({4-[(6-methoxyquinolin-8-yl)amino]pentyl}carbamoyl)amino]-4-methylpentanamide], the minimal effective concentration in [1] is > 100 µg/mL; in [2] it was 25 µg/mL; in the data set on Candida kefyr ATCC 2512, > 100 µg/mL; in [3], > 100 µg/mL; in [5], > 100 µg/mL. Also, the MBEC was >100 µg/mL in [4]; >100 µg/mL in data set [6]; 6.25 µg/mL in data set [7]; 6.25 µg/mL in data set [8]; 25 µg/mL in data set [9]; 60 µg/mL in [10]. Besides, the MBEC in [11] turned out to be 25 µg/mL; in data set [12], 12.5 µg/mL. The “DPPH-reducing ability 20 min” value in [13] was 6^b %. Further, in data set [13], the “DPPH-reducing ability 60 min” value is 5^b %. Further, in data set [14], the “LP inhibition (%) ± SD” value turned out to be 15 ± 0.7%. Further, the hemolysis at 1 h, 50 µg/ml in data set [15] (setting [16]) amounted to 3.14 ± 0.04%. Besides, in data set [15] (setting [16]), the hemolysis at 1 h, 100 µg/ml came to 4.03 ± 0.03%. In data set [15] (setting [16]), the hemolysis at 1 h, 200 µg/ml is 4.24 ± 0.07%.

Take `COc1cc(NC(C)CCCNC(=O)NC(C(=O)NC(c2ccccc2)c2ccc(Cl)cc2)c2ccccc2)c2ncccc2c1` (centres unmarked) [Compound 5c, N-[(4-chlorophenyl)(phenyl)methyl]-2-[({4-[(6-methoxyquinolin-8-yl)amino]pentyl}carbamoyl)amino]-2-phenylacetamide]: the minimal effective concentration was 50 µg/mL in data set [1]; 25 µg/mL in [2]; > 100 µg/mL with Candida kefyr ATCC 2512; > 100 µg/mL in data set [3]; > 100 µg/mL in data set [5]. Besides, the MBEC in data set [4] was >100 µg/mL; in data set [6], >100 µg/mL; in data set [7], 6.25 µg/mL; in data set [8], 6.25 µg/mL; in [9] it was 25 µg/mL; in data set [10], 50 µg/mL. Further, the MBEC in data set [11] and in data set [12] was >100 µg/mL in each case. Moreover, the “DPPH-reducing ability 20 min” value in data set [13] is given as 2^b %. For the same compound, the “DPPH-reducing ability 60 min” value in data set [13] was 2^b %. In data set [14], the “LP inhibition (%) ± SD” value is 99 ± 2.8%. The hemolysis at 1 h, 50 µg/ml in data set [15] (setting [16]) was 3.06 ± 0.05%. Further, the hemolysis at 1 h, 100 µg/ml in data set [15] (setting [16]) was determined as 4.26 ± 0.07%. Besides, the hemolysis at 1 h, 200 µg/ml in data set [15] (setting [16]) was found to be 4.89 ± 0.13%.

Regarding `COc1cc(NC(C)CCCN)c2ncccc2c1` (centres unmarked) [PQ, 8-[(4-amino-1-methylbutyl)amino]-6-methoxyquinoline, reference compound], the minimal effective concentration in data set [1] is > 100 µg/mL; in [2], > 100 µg/mL; with Candida kefyr ATCC 2512 it was 50 µg/mL; in data set [3], > 100 µg/mL; in data set [5] it was > 100 µg/mL. The MBEC in data set [4] was 50 µg/mL; in data set [6], >100 µg/mL; in data set [7], 25 µg/mL; in data set [8] it was 25 µg/mL; in [9], 50 µg/mL; in data set [10], 70 µg/mL. In addition, the figures for the MBEC in data set [11] and in data set [12] were >100 µg/mL and 50 µg/mL, respectively. Also, the hemolysis at 1 h, 50 µg/ml in data set [15] amounted to 2.08 ± 0.05%. The hemolysis at 1 h, 100 µg/ml in data set [15] was determined as 2.53 ± 0.04%. Also, in [15], the hemolysis at 1 h, 200 µg/ml is 3.12 ± 0.07%.

Regarding `COc1ccc(C(=NNC(=O)C(NC(=O)NCCCC(C)Nc2cc(OC)cc3cccnc23)c2ccc(Cl)cc2)c2ccccc2)cc1` (centres unmarked) [Compound 5f, 3-[(4-chlorophenyl)({N'-[(4-methoxyphenyl)(phenyl)methylidene]hydrazinecarbonyl})methyl]-1-{4-[(6-methoxyquinolin-8-yl)amino]pentyl}urea], the minimal effective concentration in data set [1] was 25 µg/mL; in data set [2] it was 25 µg/mL; in the data set on Candida kefyr ATCC 2512, 6.25 µg/mL; in data set [3] it was > 100 µg/mL; in data set [5] it was > 100 µg/mL. Moreover, the MBEC is >100 µg/mL in data set [4]; >100 µg/mL in data set [6]; 12.5 µg/mL in [7]; 6.25 µg/mL in [8]; >100 µg/mL in data set [9]; >100 µg/mL in data set [10]. Also, the MBEC in [11] and in data set [12] was >100 µg/mL in each case. The “DPPH-reducing ability 20 min” value in data set [13] is reported as 2^b %. In data set [13], the “DPPH-reducing ability 60 min” value is listed as 2^b %. In addition, the “LP inhibition (%) ± SD” value in data set [14] is recorded as 90 ± 3.6%. The hemolysis at 1 h, 50 µg/ml in [15] (setting [16]) worked out at 3.32 ± 0.05%. In [15] (setting [16]), the hemolysis at 1 h, 100 µg/ml was 3.66 ± 0.05%. Moreover, in data set [15] (setting [16]), the hemolysis at 1 h, 200 µg/ml is 4.03 ± 0.09%.
